The target of one data set is Histone deacetylase 3 (Homo sapiens, UniProt O15379). Briefly: Inhibition of recombinant human HDAC3 using p53 (Ac-RHKK(Acetyl)-AMC) as substrate preincubated for 5 mins followed by substrate addition and measured after 30 mins by fluorescence based analysis.
The target in another data set is T1, Histone deacetylase 8 (Homo sapiens, UniProt Q9BY41).
T1 sequence (Q9BY41 whole entry): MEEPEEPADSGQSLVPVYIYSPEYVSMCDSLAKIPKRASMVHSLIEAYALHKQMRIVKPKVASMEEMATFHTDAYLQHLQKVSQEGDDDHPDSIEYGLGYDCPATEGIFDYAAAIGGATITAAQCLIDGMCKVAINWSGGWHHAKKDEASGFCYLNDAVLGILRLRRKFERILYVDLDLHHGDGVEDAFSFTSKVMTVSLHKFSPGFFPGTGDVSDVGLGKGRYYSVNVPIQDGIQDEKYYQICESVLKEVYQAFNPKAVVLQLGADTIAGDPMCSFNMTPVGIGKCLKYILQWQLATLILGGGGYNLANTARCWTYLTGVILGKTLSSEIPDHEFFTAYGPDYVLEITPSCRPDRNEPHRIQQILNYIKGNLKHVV
In words: Inhibition of recombinant human HDAC8 using (Abz-SRGK(thio-TFA)FFRR-NH2) as substrate preincubated for 5 mins followed by substrate addition by fluorescence based analysis.

The target of data set [1] is T2, Histone deacetylase 2 (Homo sapiens, UniProt Q92769). In words: Inhibition of recombinant human HDAC2 using p53 (Ac-RHKK(Acetyl)-AMC) as substrate preincubated for 5 mins followed by substrate addition and measured after 30 mins by fluorescence based analysis.
T2 sequence (Q92769 whole entry): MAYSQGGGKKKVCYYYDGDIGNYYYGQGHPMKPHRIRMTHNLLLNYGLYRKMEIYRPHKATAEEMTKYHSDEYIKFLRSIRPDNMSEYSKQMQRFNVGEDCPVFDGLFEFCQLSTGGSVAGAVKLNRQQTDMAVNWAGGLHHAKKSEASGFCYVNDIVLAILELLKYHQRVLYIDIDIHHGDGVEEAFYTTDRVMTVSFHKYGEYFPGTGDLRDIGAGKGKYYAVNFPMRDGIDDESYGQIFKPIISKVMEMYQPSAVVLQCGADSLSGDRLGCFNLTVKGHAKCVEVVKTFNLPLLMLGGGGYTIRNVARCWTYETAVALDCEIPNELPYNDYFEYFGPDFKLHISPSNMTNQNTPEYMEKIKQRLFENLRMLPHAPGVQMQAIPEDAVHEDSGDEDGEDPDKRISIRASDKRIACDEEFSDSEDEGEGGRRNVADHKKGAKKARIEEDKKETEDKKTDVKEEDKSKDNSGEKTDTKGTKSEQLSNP
Data set [2] addresses T3, Histone deacetylase 8 (Homo sapiens) (UniProt Q9BY41).
T3 sequence (whole entry): T1 sequence (Q9BY41 whole entry)
In words: Inhibition of HDAC8 in human Jurkat T cells assessed as increase in H3K27 acetylation at 10 uM after 6 hrs by Western blot analysis. Format: cell-based.

Data set [3] concerns the target T4, Histone deacetylase 1 (Homo sapiens, UniProt Q13547). Briefly: Inhibition of recombinant human HDAC1 using p53 (Ac-RHKK(Acetyl)-AMC) as substrate preincubated for 5 mins followed by substrate addition and measured after 90 mins by fluorescence based analysis.
The next data set deals with HEK293. In words: Cytotoxicity against HEK293 cells assessed as reduction in cell viability at 50 uM after 24 hrs by alamar blue assay. The data set is classed as toxicity, cell-based. The conditions noted are these: human, hek293, 24 h. Background: Alamar Blue is a resazurin reagent that responds to reducing activity.
In data set [4] the target is T3, Histone deacetylase 8 (Homo sapiens). In words: Inhibition of recombinant human HDAC8 at 10 uM using (Abz-SRGK(thio-TFA)FFRR-NH2) as substrate preincubated for 5 mins followed by substrate addition by fluorescence based analysis relative to control.
For data set [5] the target is unchanged. In words: Inhibition of recombinant human HDAC8 at 1 uM using (Abz-SRGK(thio-TFA)FFRR-NH2) as substrate preincubated for 5 mins followed by substrate addition by fluorescence based analysis relative to control.
For data set [6], the target named is T4, Histone deacetylase 1. In words: Inhibition of recombinant human HDAC1 at 10 uM using p53 (Ac-RHKK(Acetyl)-AMC) as substrate preincubated for 5 mins followed by substrate addition and measured after 90 mins by fluorescence based analysis relative to control. Conditions: time 95.0 min.
For data set [7], the target named is T4, Histone deacetylase 1. In words: Inhibition of recombinant human HDAC1 at 1 uM using p53 (Ac-RHKK(Acetyl)-AMC) as substrate preincubated for 5 mins followed by substrate addition and measured after 90 mins by fluorescence based analysis relative to control. Conditions: time 95.0 min.
Data set [8] deals with T2, Histone deacetylase 2. Briefly: Inhibition of recombinant human HDAC2 at 1 uM using p53 (Ac-RHKK(Acetyl)-AMC) as substrate preincubated for 5 mins followed by substrate addition and measured after 30 mins by fluorescence based analysis relative to control. The conditions noted are these: time 35.0 min.
Data set [9] deals with T2, Histone deacetylase 2. Briefly: Inhibition of recombinant human HDAC2 at 10 uM using p53 (Ac-RHKK(Acetyl)-AMC) as substrate preincubated for 5 mins followed by substrate addition and measured after 30 mins by fluorescence based analysis relative to control. The conditions noted are these: time 35.0 min.

Active and inactive are the calls of the source. The calls are words filed in the database; no cut-off is given here. Bounds are passed on as bounds.

Sequence of Histone deacetylase 3 (O15379 whole entry): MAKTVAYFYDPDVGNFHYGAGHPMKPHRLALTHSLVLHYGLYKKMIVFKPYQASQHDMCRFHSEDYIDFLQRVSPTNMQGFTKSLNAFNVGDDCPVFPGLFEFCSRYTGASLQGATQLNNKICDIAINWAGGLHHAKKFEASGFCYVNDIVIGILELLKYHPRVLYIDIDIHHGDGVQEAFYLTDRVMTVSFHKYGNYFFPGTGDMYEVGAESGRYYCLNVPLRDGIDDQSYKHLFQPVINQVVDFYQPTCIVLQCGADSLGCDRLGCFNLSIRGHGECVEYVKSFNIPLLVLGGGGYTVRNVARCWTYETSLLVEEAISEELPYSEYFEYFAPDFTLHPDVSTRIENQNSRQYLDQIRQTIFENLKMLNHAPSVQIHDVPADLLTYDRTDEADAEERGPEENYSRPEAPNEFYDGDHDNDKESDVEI
T4 sequence (Q13547 whole entry): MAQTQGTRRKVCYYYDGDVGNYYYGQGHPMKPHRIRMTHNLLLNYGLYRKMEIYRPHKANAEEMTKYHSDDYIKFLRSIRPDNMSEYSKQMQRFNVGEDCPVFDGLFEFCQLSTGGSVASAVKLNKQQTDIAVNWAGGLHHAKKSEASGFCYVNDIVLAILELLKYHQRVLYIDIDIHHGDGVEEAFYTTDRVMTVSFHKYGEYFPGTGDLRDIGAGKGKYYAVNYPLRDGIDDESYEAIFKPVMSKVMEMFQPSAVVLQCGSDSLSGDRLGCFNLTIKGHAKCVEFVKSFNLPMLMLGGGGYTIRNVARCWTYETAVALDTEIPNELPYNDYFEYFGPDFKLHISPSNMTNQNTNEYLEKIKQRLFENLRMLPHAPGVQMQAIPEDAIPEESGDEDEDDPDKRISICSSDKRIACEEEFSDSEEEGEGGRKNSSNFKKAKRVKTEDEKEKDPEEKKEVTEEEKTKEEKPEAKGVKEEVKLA

In general, IC50 refers to the concentration that gives 50% inhibition. A word on the inhibition: it is the relative decrease from the control value, in per cent. For the compound `CCCCCCNNC(=O)c1cnc(NCc2ccc(CNC(C)=O)cc2)nc1`, the concentration for half-maximal inhibition (IC50) on Histone deacetylase 3 came out at 8500 nM; on Histone deacetylase 8 it was 19 nM; on Histone deacetylase 2 [1], 4500 nM; at Histone deacetylase 1 [3], 960 nM. Also, in data set [2], the inhibition result was “Active”. The Cell viability with HEK293 is recorded as 79.4%.
On to `CCCCCCNNC(=O)c1cnc(N2CCN(CCc3c[nH]c4ccccc34)CC2)nc1`, for which the half-maximal inhibitory concentration (IC50) on Histone deacetylase 3 was 1000 nM; at Histone deacetylase 8, 13 nM; on Histone deacetylase 2 [1] it was 1400 nM; at Histone deacetylase 1 [3], 860 nM. Moreover, the Cell viability with HEK293 amounted to 47.1%.
As for `CCCCCCNNC(=O)c1ccc(CNC(C)=O)cc1`, the IC50 is over 20000 nM on Histone deacetylase 3, 23 nM at Histone deacetylase 8, 12000 nM on Histone deacetylase 2 [1] and 48000 nM at Histone deacetylase 1 [3]. The Cell viability in the data set on HEK293 was determined as 113.3%.
Take `CCCNNC(=O)c1cnc(NCc2ccc(CNC(C)=O)cc2)nc1`: the figures for the concentration for half-maximal inhibition (IC50) on Histone deacetylase 3, at Histone deacetylase 2 [1] and at Histone deacetylase 1 [3] were 110 nM, 920 nM and 290 nM, respectively. In addition, in [2], the inhibition entry was “Active”. For the same compound, in the data set on HEK293, the Cell viability worked out at 93.1%.
Turning to `CCCCCNNC(=O)c1ccc(-c2ccc(CNC(C)=O)cc2)cc1`, the IC50 was determined as 1500 nM on Histone deacetylase 3, 350 nM on Histone deacetylase 8, 2000 nM at Histone deacetylase 2 [1] and 660 nM on Histone deacetylase 1 [3]. Also, the Cell viability with HEK293 amounted to 90.8%.
Turning to `CCCCNNC(=O)c1cnc(NCc2ccccc2)nc1`, the inhibition in data set [4] was found to be 94%; in [5] it was 66%; on Histone deacetylase 1 [6] it was 85%; at Histone deacetylase 1 [7] it was 61%; on Histone deacetylase 2 [8] it was 46%; on Histone deacetylase 2 [9], 93%. Further, the half-maximal inhibitory concentration (IC50) on Histone deacetylase 3 is 200 nM. The Cell viability in the data set on HEK293 is reported as 88.9%.
For `CCCCNNC(=O)c1ccc(-c2ccc(CNC(C)=O)cc2)cc1`, the concentration for half-maximal inhibition (IC50) at Histone deacetylase 3 was 350 nM; at Histone deacetylase 8 it was 360 nM; at Histone deacetylase 2 [1], 1100 nM; at Histone deacetylase 1 [3] it was 620 nM. Moreover, in the data set with HEK293, the Cell viability amounted to 80.1%.
With `CCCNNC(=O)c1cnc(NCc2cccc3ccccc23)nc1`, the inhibition in data set [4] turned out to be 83%; in [5], 36%; at Histone deacetylase 1 [6], 91%; on Histone deacetylase 1 [7] it was 53%; on Histone deacetylase 2 [8], 46%; at Histone deacetylase 2 [9], 93%. Further, the IC50 at Histone deacetylase 3 was 81 nM. Further, the Cell viability in the data set on HEK293 is listed as 78.9%.
`CCCNNC(=O)c1cnc(NCc2ccc(Cl)cc2)nc1`: the inhibition in data set [4] amounted to 88%; in data set [5] it was 62%; at Histone deacetylase 1 [6] it was 92%; at Histone deacetylase 1 [7], 54%; on Histone deacetylase 2 [8] it was 61%; on Histone deacetylase 2 [9], 96%. Also, on Histone deacetylase 3, the IC50 was determined as 37 nM. The Cell viability with HEK293 was determined as 83.2%.
For `CCCNNC(=O)c1ccc(CNC(C)=O)cc1`, the IC50 on Histone deacetylase 3 came out at 1600 nM; on Histone deacetylase 2 [1] it was 5500 nM; at Histone deacetylase 1 [3], 1600 nM. Also, the Cell viability with HEK293 came out at 81.2%.
In the case of `CCCCCCNNC(=O)c1cnc(NCc2cccc3ccccc23)nc1`, the 50% inhibitory concentration (IC50) at Histone deacetylase 3 was over 20000 nM; at Histone deacetylase 8, 63 nM; at Histone deacetylase 2 [1] it was over 20000 nM; at Histone deacetylase 1 [3], 8300 nM. Also, the inhibition entry in data set [2] is “Active”. Further, the Cell viability with HEK293 came to 65.7%.
With `CCCCCCNNC(=O)c1cnc(NCCc2ccccc2)nc1`, the IC50 on Histone deacetylase 3 came to 7200 nM; on Histone deacetylase 8 it was 28 nM; at Histone deacetylase 2 [1], 12000 nM; on Histone deacetylase 1 [3] it was 2200 nM. Also, the inhibition result in [2] is “Active”. Besides, the Cell viability in the data set on HEK293 came to 90.1%.
With `CCCNNC(=O)c1cnc(N2CCN(C)CC2)nc1`, the IC50 was determined as 120 nM on Histone deacetylase 3, 250 nM on Histone deacetylase 8, 2400 nM on Histone deacetylase 2 [1] and 590 nM on Histone deacetylase 1 [3]. Also, the Cell viability in the data set on HEK293 worked out at 93.6%.
Take `CCCCCCNNC(=O)c1cnc(NCc2ccccc2)nc1`: the IC50 was 3000 nM on Histone deacetylase 3, 16 nM at Histone deacetylase 8, 3200 nM on Histone deacetylase 2 [1] and 560 nM on Histone deacetylase 1 [3]. In addition, the Cell viability in the data set on HEK293 amounted to 88.4%.
For `CCCNNC(=O)c1cnc(NCc2cc(Cl)ccc2Cl)nc1`, the inhibition was found to be 83% in data set [4], 33% in data set [5], 88% on Histone deacetylase 1 [6] and 66% on Histone deacetylase 1 [7]. The half-maximal inhibitory concentration (IC50) at Histone deacetylase 3 was determined as 58 nM. Also, the Cell viability in the data set on HEK293 was determined as 78.2%.
As for `CCCCCCNNC(=O)c1cnc(N2CCN(CCc3cn(C)c4ccccc34)CC2)nc1`, the concentration for half-maximal inhibition (IC50) worked out at 1400 nM on Histone deacetylase 3, 23 nM on Histone deacetylase 8, 1200 nM on Histone deacetylase 2 [1] and 400 nM on Histone deacetylase 1 [3]. The inhibition result in data set [2] was “Active”. Further, in the data set on HEK293, the Cell viability came to 31.8%.
Consider `CCCNNC(=O)c1cnc(NCc2ccccc2Cl)nc1`, for which the inhibition in data set [4] was determined as 87%; in data set [5] it was 43%; at Histone deacetylase 1 [6], 89%; on Histone deacetylase 1 [7], 71%; at Histone deacetylase 2 [8], 55%; at Histone deacetylase 2 [9], 92%. In addition, the 50% inhibitory concentration (IC50) at Histone deacetylase 3 came out at 60 nM. The Cell viability in the data set with HEK293 is reported as 80.7%.
Consider `CCCCCCNNC(=O)c1cnc(N2CCN(Cc3cn(C)c4ccccc34)CC2)nc1`, for which the half-maximal inhibitory concentration (IC50) on Histone deacetylase 3 came to 300 nM; on Histone deacetylase 8, 14 nM; at Histone deacetylase 2 [1], 330 nM; on Histone deacetylase 1 [3], 170 nM. Moreover, in [2], the inhibition result was “Active”. Moreover, in the data set on HEK293, the Cell viability is 1.6%.

Source of the values: ChEMBL document CHEMBL5150060 (J Med Chem, 2022).
